Data from patent publication EP4603105A1, “PHARMACEUTICAL COMPOSITION CONTAINING CYCLIC COMPOUND HAVING SELECTIVE KRAS INHIBITORY EFFECT AGAINST HRAS AND NRAS” (CHUGAI SEIYAKU KABUSHIKI KAISHA, priority 2022, dated 2024).
Where two headings read alike, the source gives them in different places.

Tests used:
[1] = biological target: HRAS wild-type protein (Homo sapiens, UniProt P01112); assay: Binding to HRAS by surface plasmon resonance (SPR), KD and KD ratio to KRAS
In short: (§1)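 Compound binding is evaluated by SPR single-cycle kinetics, with concentrations added intermittently from low to high for 75 s each. Target surfaces carry GDP-loaded biotinylated Avi-RAS at about 100–300 RU, regenerated after each cycle; temperature 30°C. A 1:1 binding model gives KD.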

[2] = biological target: GDP-bound NRAS wild-type protein (Homo sapiens, UniProt P01111); assay: Binding to NRAS by surface plasmon resonance (SPR), KD and KD ratio to KRAS
In short: as §1

[3] = biological target: GDP-bound KRAS wild-type protein (Homo sapiens, UniProt P01116); assay: Binding to KRAS by surface plasmon resonance (SPR), dissociation constant KD
In short: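 SPR, 30°C: Avi-biotin RAS·GDP captured via Biotin CAPture (~100–300 RU); running buffer HBS pH 7.4, 1 mM DTT, 10 mM MgCl2, 0.01% Tween 20, 10 µM GDP, 4% DMSO. Single-cycle kinetics, 100 µL/min, 75 s injections; 1:1 model → KD.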

[4] = tested on: human lung cancer strain NCI-H441; assay: NCI-H441 cell proliferation inhibitory activity (CellTiter-Glo, 4 days); type: cell-based; conditions: read-out: NCl-H441 IC50
In short: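 Proliferation was scored by […] measured after the reagent was added to cultures kept at 37°C in 5% carbon dioxide.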

[5] = ratio of KD for HRAS wild-type protein to KD for KRAS
[6] = ratio of KD for GDP-bound NRAS wild-type protein to KD for KRAS
[7] = ratio of KD with respect to HRAS wild-type protein to KD with respect to KRAS
[8] = ratio of KD with respect to GDP-bound NRAS wild-type protein to KD with respect to KRAS
[9] = Single Cycle Kinetics, 1:1 binding model
[10] = 50% proliferation inhibitory concentration, four days

GDP-bound NRAS wild-type protein, sequence (P01111 whole entry): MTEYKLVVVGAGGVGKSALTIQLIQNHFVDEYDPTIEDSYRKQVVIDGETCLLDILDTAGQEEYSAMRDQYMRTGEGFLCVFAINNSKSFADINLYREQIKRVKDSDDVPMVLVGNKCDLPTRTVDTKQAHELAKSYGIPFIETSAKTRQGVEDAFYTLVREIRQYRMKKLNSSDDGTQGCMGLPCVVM
HRAS wild-type protein, sequence (P01112 whole entry): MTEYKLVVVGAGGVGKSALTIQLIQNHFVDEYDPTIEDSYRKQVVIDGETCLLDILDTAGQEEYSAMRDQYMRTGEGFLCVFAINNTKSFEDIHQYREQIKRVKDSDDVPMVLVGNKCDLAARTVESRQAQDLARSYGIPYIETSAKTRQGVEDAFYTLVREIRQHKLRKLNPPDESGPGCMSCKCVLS
GDP-bound KRAS wild-type protein, sequence (P01116 1-188 isoform P01116-2): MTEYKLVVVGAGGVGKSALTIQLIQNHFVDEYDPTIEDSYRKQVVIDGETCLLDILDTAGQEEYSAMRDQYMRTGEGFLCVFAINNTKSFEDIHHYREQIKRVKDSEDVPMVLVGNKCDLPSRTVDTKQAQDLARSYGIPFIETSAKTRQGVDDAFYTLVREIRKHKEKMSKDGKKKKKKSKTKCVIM

CCC[C@H]1C(=O)N[C@@H]([C@@H](C)CC)C(=O)N(C2CC2)CC(=O)N(C)[C@H]2C/C=C\CCN(C2=O)[C@@H](Cc2ccc(C(F)(F)F)cc2)C(=O)N(C)CC(=O)N[C@@H](CCc2cc(F)c(C(F)(F)F)c(F)c2)C(=O)N2CC[C@H](OC)[C@H]2C(=O)N(C)C2(CCC2)C(=O)N(C)[C@@H](C2CCCC2)C(=O)N(C)[C@H](C(=O)N(C)C)CC(=O)N1C [PP3282]
HRAS /KRAS [1, 5]: A (a compound having 10 or more and less than 20 is denoted as A)
NRAS /KRAS [2, 6]: A (a compound having 10 or more and less than 20 is denoted as A)
Kd ([3]; Single Cycle Kinetics): 0.2 nM
IC50 ([4]; NCI-H441 cells, 4 days): 8.3 nM

CCO[C@@H]1C[C@H]2C(=O)NC3(CC(C)(C)C3)C(=O)N(C)[C@@H](C3CCCC3)C(=O)N(C)[C@H](C(=O)N(C)C)CC(=O)N(C)[C@@H](COC)C(=O)N[C@@H]([C@@H](C)CC)C(=O)N(C3CC3)CC(=O)N(C)[C@H]3C/C=C\CCN(C3=O)[C@@H](CC3CCCCC3)C(=O)N(C)CC(=O)N[C@@H](CCc3ccc(Cl)c(Cl)c3)C(=O)N2C1 [PP2563]
HRAS /KRAS [1, 5]: A (a compound having 10 or more and less than 20 is denoted as A)
NRAS /KRAS [2, 6]: A (a compound having 10 or more and less than 20 is denoted as A)
Kd ([3]; 1:1 binding model): 2.3 nM
IC50 ([4]; NCI-H441 cells, 4 days): 108 nM

CCC[C@H]1C(=O)N[C@@H](CC(C)C)C(=O)N(CC)CC(=O)N(C)[C@H]2C/C=C\CCN(C2=O)[C@@H](Cc2ccc(C)cc2)C(=O)N(C)CC(=O)N[C@@H](CCc2ccc(C(F)(F)F)c(Cl)c2)C(=O)N2C[C@H](OCC)C[C@H]2C(=O)NC2(CCC2)C(=O)N(C)[C@@H](C2CCCC2)C(=O)N(C)[C@H](C(=O)N(C)C)CC(=O)N1C [PP2545]
HRAS /KRAS [1, 5]: A (a compound having 10 or more and less than 20 is denoted as A)
NRAS /KRAS [2, 6]: A (a compound having 10 or more and less than 20 is denoted as A)
Kd ([3]; 1:1 binding model): 4.3 nM
IC50 ([4]; NCI-H441 cells, 4 days): 279 nM

CCO[C@@H]1C[C@H]2C(=O)NC3(CC(C)(C)C3)C(=O)N(C)[C@@H](C(CC)CC)C(=O)N(C)[C@H](C(=O)N(C)C)CC(=O)N(C)[C@@H](COC)C(=O)N[C@@H]([C@@H](C)CC)C(=O)N(C)CC(=O)N(C)[C@H]3C/C=C\CCN(C3=O)[C@@H](CC3CCC(F)(F)CC3)C(=O)N(C)CC(=O)N[C@@H](CCc3cc(F)c(C(F)(F)F)c(F)c3)C(=O)N2C1 [PP2440]
HRAS /KRAS [1, 5]: A (a compound having 10 or more and less than 20 is denoted as A)
NRAS /KRAS [2, 6]: A (a compound having 10 or more and less than 20 is denoted as A)
Kd ([3]; 1:1 binding model): 0.44 nM
IC50 ([4]; NCI-H441 cells, 4 days): 20.1 nM

CCO[C@@H]1C[C@H]2C(=O)NC3(CCC3)C(=O)N(C)[C@@H](C3CCCC3)C(=O)N(C)[C@H](C(=O)N3CCOCC3)CC(=O)N(C)[C@@H](Cc3ccccc3C#N)C(=O)N[C@@H]([C@@H](C)CC)C(=O)N(C)CC(=O)N(C)[C@H]3CCCCCN(C3=O)[C@@H](Cc3ccc(F)cc3)C(=O)N(C)CC(=O)N[C@@H](CCc3cc(F)c(C(F)(F)F)c(F)c3)C(=O)N2C1 [PP1185]
HRAS /KRAS [1, 7]: B (a compound having 3 or more and less than 10 is denoted as B)
NRAS /KRAS [2, 8]: B (a compound having 3 or more and less than 10 is denoted as B)
Kd [3, 9]: 0.5 nM
IC50 [4, 10]: 175 nM

CCC[C@H]1C(=O)N[C@@H]([C@@H](C)CC)C(=O)N2CCC[C@H]2C(=O)N(C)[C@H]2C/C=C\CCN(C2=O)[C@@H](CC2CCC(F)(F)CC2)C(=O)N(C)CC(=O)N[C@@H](CCc2ccc(C(F)(F)F)c(OC)c2)C(=O)N2C[C@@H](C)C[C@H]2C(=O)N(C)C2(CCC2)C(=O)N(C)[C@@H](C2CCCC2)C(=O)N(C)[C@H](C(=O)N(C)C)CC(=O)N1C [PP2380]
HRAS /KRAS [1, 5]: A (a compound having 10 or more and less than 20 is denoted as A)
NRAS /KRAS [2, 6]: A (a compound having 10 or more and less than 20 is denoted as A)
Kd ([3]; 1:1 binding model): 0.85 nM
IC50 ([4]; NCI-H441 cells, 4 days): 2.1 nM

CCC(CC)[C@H]1C(=O)N(C)[C@H](C(=O)N(C)C)CC(=O)N(C)[C@@H](COC)C(=O)N[C@@H]([C@@H](C)CC)C(=O)N(C)CC(=O)N(C)[C@H]2C/C=C\CCN(C2=O)[C@@H](CC2CCC(F)(F)CC2)C(=O)N(C)CC(=O)N[C@@H](CCc2cc(F)c(C(F)(F)F)c(F)c2)C(=O)N2C[C@@H](C)C[C@H]2C(=O)NC2(CC(C)(C)C2)C(=O)N1C [PP2448]
HRAS /KRAS [1, 5]: A (a compound having 10 or more and less than 20 is denoted as A)
NRAS /KRAS [2, 6]: A (a compound having 10 or more and less than 20 is denoted as A)
Kd ([3]; 1:1 binding model): 1.4 nM
IC50 ([4]; NCI-H441 cells, 4 days): 26.9 nM

CCO[C@@H]1C[C@H]2C(=O)NC3(CCCC3)C(=O)N(C)[C@@H](C3CCCC3)C(=O)N(C)[C@H](C(=O)N(C)C)CC(=O)N(C)[C@@H](CC(C)C)C(=O)N[C@@H]([C@@H](C)CC)C(=O)N(C)CC(=O)N(C)[C@H]3C/C(F)=C\CCN(C3=O)[C@@H](Cc3ccc(C)cc3)C(=O)N(C)CC(=O)N[C@@H](CCc3cc(F)c(C(F)(F)F)c(F)c3)C(=O)N2C1 [PP3511]
HRAS /KRAS [1, 5]: B (a compound having 3 or more and less than 10 is denoted as B)
NRAS /KRAS [2, 6]: B (a compound having 3 or more and less than 10 is denoted as B)
Kd ([3]; Single Cycle Kinetics): 0.27 nM
IC50 ([4]; NCI-H441 cells, 4 days): 12.3 nM

CCCO[C@@H]1C[C@H]2C(=O)NC3(CC(C)(C)C3)C(=O)N(C)[C@@H](C3CCCC3)C(=O)N(C)[C@H](C(=O)N(C)CC)CC(=O)N[C@@H](COCC)C(=O)N[C@@H]([C@@H](C)CC)C(=O)N3CCC[C@H]3C(=O)N(C)[C@H]3C/C=C\CCN(C3=O)[C@@H](Cc3ccc(C)cc3)C(=O)N(C)CC(=O)N[C@@H](CCc3cc(F)c(C(F)(F)F)c(F)c3)C(=O)N2C1 [PP3423]
HRAS /KRAS [1, 5]: A (a compound having 10 or more and less than 20 is denoted as A)
NRAS /KRAS [2, 6]: A (a compound having 10 or more and less than 20 is denoted as A)
Kd ([3]; Single Cycle Kinetics): 1.8 nM
IC50 ([4]; NCI-H441 cells, 4 days): 81.2 nM

CCO[C@@H]1C[C@H]2C(=O)NC3(CCC3)C(=O)N(C)[C@@H](C3CCCC3)C(=O)N(C)[C@H](C(=O)N(C)C)CC(=O)N(C)[C@@H](CC(C)C)C(=O)N[C@@H]([C@@H](C)CC)C(=O)N(C)CC(=O)N(C)[C@H]3C/C=C\CCN(C3=O)[C@@H](Cc3ccc(C(F)(F)F)cc3)C(=O)N(C)CC(=O)N[C@@H](CCc3ccc(Cl)c(Cl)c3)C(=O)N2C1 [PP1251]
HRAS /KRAS [1, 7]: A (a compound having 10 or more and less than 20 is denoted as A)
NRAS /KRAS [2, 8]: AA (a compound having 20 or more is denoted as AA)
Kd [3, 9]: 0.18 nM
IC50 [4, 10]: 10.2 nM

CCC[C@H]1C(=O)N[C@@H]([C@@H](C)CC)C(=O)N(C)CC(=O)N(C)[C@H]2C/C=C\CCN(C2=O)[C@@H](Cc2ccc(C)cc2)C(=O)N(C)CC(=O)N[C@@H](CCc2ccc(C(F)(F)F)c(OC)c2)C(=O)N2CC[C@H](OC)[C@H]2C(=O)N(C)C2(CCC2)C(=O)N(C)[C@@H](C2CCCC2)C(=O)N(C)[C@H](C(=O)N(C)C)CC(=O)N1C [PP3249]
HRAS /KRAS [1, 5]: B (a compound having 3 or more and less than 10 is denoted as B)
NRAS /KRAS [2, 6]: A (a compound having 10 or more and less than 20 is denoted as A)
Kd ([3]; Single Cycle Kinetics): 0.059 nM
IC50 ([4]; NCI-H441 cells, 4 days): 4.2 nM

CC[C@H](C)[C@@H]1NC(=O)[C@H](CC)N(C)C(=O)C[C@@H](C(=O)N(C)C)N(C)C(=O)[C@H](C2CCCC2)N(C)C(=O)C2(CCC2)NC(=O)[C@H](C)N(C)C(=O)[C@H](CCc2cc(F)c(C(F)(F)F)c(F)c2)NC(=O)CN(C)C(=O)[C@H](Cc2ccc(C(F)(F)F)cc2)N2CC/C=C\C[C@@H](C2=O)N(C)C(=O)CN(C)C1=O [PP1146]
HRAS /KRAS [1, 7]: B (a compound having 3 or more and less than 10 is denoted as B)
NRAS /KRAS [2, 8]: A (a compound having 10 or more and less than 20 is denoted as A)
Kd [3, 9]: 0.32 nM
IC50 [4, 10]: 202 nM

CCC[C@H]1C(=O)N[C@@H]([C@@H](C)CC)C(=O)N(C2CC2)CC(=O)N(C)[C@H]2C/C=C\CCN(C2=O)[C@@H](Cc2ccc(C)cc2)C(=O)N(C)CC(=O)N[C@@H](CCc2ccc(C(F)(F)F)c(OC)c2)C(=O)N2C[C@H](OCC)C[C@H]2C(=O)OC2(CCC2)C(=O)N(C)[C@@H](C2CCCC2)C(=O)N(C)[C@H](C(=O)N(C)C)CC(=O)N1C [PP3387]
HRAS /KRAS [1, 5]: B (a compound having 3 or more and less than 10 is denoted as B)
NRAS /KRAS [2, 6]: A (a compound having 10 or more and less than 20 is denoted as A)
Kd ([3]; Single Cycle Kinetics): 0.56 nM
IC50 ([4]; NCI-H441 cells, 4 days): 11.1 nM

CCCC[C@@H]1NC(=O)C[C@@H](C(=O)N(C)C)N(C)C(=O)[C@H](C2CCCC2)N(C)C(=O)C2(CC(C)(C)C2)NC(=O)[C@@H]2C[C@@H](OCC)CN2C(=O)[C@H](CCc2ccc(C(F)(F)F)c(OC)c2)NC(=O)CN(C)C(=O)[C@H](Cc2ccc(C(F)(F)F)cc2)N2CC/C=C\C[C@@H](C2=O)N(C)C(=O)CN(C)C(=O)[C@H]([C@@H](C)CC)NC1=O [PP3446]
HRAS /KRAS [1, 5]: A (a compound having 10 or more and less than 20 is denoted as A)
NRAS /KRAS [2, 6]: A (a compound having 10 or more and less than 20 is denoted as A)
Kd ([3]; Single Cycle Kinetics): 0.2 nM
IC50 ([4]; NCI-H441 cells, 4 days): 21.3 nM

CCO[C@@H]1C[C@H]2C(=O)NC3(CCC3)C(=O)N(C)[C@@H](C3CCCC3)C(=O)N(C)[C@H](C(=O)N3CCOCC3)CC(=O)N(C)[C@@H](Cc3ccc(Cl)c(Cl)c3)C(=O)N[C@@H]([C@@H](C)CC)C(=O)N(C)CC(=O)N(C)[C@H]3CCCCCN(C3=O)[C@@H](Cc3ccc(F)cc3)C(=O)N(C)CC(=O)N[C@@H](CCc3cc(F)c(C(F)(F)F)c(F)c3)C(=O)N2C1 [PP1188]
HRAS /KRAS [1, 7]: B (a compound having 3 or more and less than 10 is denoted as B)
NRAS /KRAS [2, 8]: B (a compound having 3 or more and less than 10 is denoted as B)
Kd [3, 9]: 0.43 nM
IC50 [4, 10]: 33.5 nM
